Bridge positions count the residues as written; N and C are the ends. Peptide text beside a SMILES is read from it.
How the values were obtained:
PD1:PDL1 interaction = target: T1, PD1:PDL1 interaction (Homo sapiens, UniProt Q15116); experiment: PD1/PDL1 immunoblocking ELISA (BPS Bioscience kit cat # 72005); format: binding; details: for LE (ligand efficiency): LE = -RTln(EC50)/HA, HA = non-hydrogen atoms omitting the strap (RWV•••VWE)
T1 construct: purchased BPS Bioscience 72005

[1] = Variable-temperature CD melting curves (CD-melts at 228±2 nm and 202±2 nm), individual and global two-state fits; format: physicochemical; details: for ΔGF0: CD-melt at 228±2 nm, individual two-state Gibbs-Helmholtz fit (Origin 9.0), phosphate buffer 15 mM pH 6.5 ± MeOH; for Tm / Hairpin %-fold 291K / Hairpin %-fold 310K: Table S5, individual fit; for Tm: 228±2 nm; for -TΔSF0 / ΔCpF0 / ΔHF0 / ΔHm: as E16; for VT-CD %-fold: folded fraction (χF) at 25 °C from CD-melts, (R) regular / (B) bulged fold
In short: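 Far-UV CD melts (0 to 95 °C) at 15-120 µM peptide in 15 mM phosphate buffer, concentration set by Trp/Tyr absorbance at 280 nm; CD-exciton intensity taken as %-folding probe. Melting curves fitted individually and globally to a two-state model.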

[2] = two-state fit of the CD melt θ - θcoil(95) vs T, 0-95 °C, l 0.1 cm, peptide c 3.2e-5 to 5e-5 M
[3] = phosphate buffer 15 mM pH 6.5, up to 20% MeOH
[4] = variable-temperature CD melt 0-95 °C, θ - θcoil(95) vs T, l = 0.1 cm, individual two-state fit

T1 sequence (Q15116 25-167 limits assumed): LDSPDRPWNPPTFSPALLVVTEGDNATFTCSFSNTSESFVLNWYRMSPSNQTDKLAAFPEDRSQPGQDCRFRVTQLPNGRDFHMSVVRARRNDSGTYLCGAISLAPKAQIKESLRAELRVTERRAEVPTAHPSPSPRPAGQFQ

SMILES	EC50 (PD1:PDL1 interaction; ELISA, mean of three independent experiments, read-out: EC50 Value) [µM]	LE (ligand efficiency) (PD1:PDL1 interaction)	ΔGF0 ([1]; 0-95 °C) [kJ/mol]	Tm [1] [oC]	Hairpin %-fold 291K [1] [%]	Hairpin %-fold 310K [1] [%]	-TΔSF0 [1] [kJ/mol]	ΔCpF0 [1] [cal.deg-1.mol-1]	ΔHF0 [1] [kJ/mol]	ΔHm [1] [kJ/mol]	DHm (fitted value, results from OriginPro) [1, 2] [kJ/mol]	Tm (fitted value, results from OriginPro) [1, 2] [K]	VT-CD %-fold [1, 3]	%fold 291K ([1]; fraction folded at 291 K from the two-state fit of the CD melt, c 6.2e-5 M, l 0.1 cm) [%]	DHm (fitted value, OriginPro) ([1]; two-state fit of the CD melt (θ - θcoil(95) vs T, 0-95 °C), l 0.1 cm, enthalpy of folding at Tm) [kJ/mol]	%fold 291K ([1]; fraction folded at 291 K from two-state fit of CD-melt) [%]	VT-CD Tm (°C) ([1]; melting temperature from CD-melts, phosphate buffer 15 mM pH 6.5, up to 20% MeOH)	DHm (fitted value, OriginPro two-state fit of CD-melt) [1, 4] [kJ/mol]	Tm (fitted value, OriginPro two-state fit of CD-melt) [1, 4] [K]
CSCC[C@@H]1NC(=O)[C@H](CC(=O)O)NC(=O)[C@H](Cc2ccccc2)NC(=O)[C@H](CCCNC(=N)N)NC(=O)[C@H](Cc2ccc(O)cc2)NC(=O)[C@H](CC(=O)O)NC(=O)[C@H](CCCNC(=N)N)NC(=O)[C@H](CCCNC(=N)N)NC(=O)[C@H](C)NC(=O)[C@@H](NC(=O)[C@H](Cc2c[nH]c3ccccc23)NC(=O)[C@@H](N)CCCNC(=N)N)CSSC[C@@H](C(=O)N[C@@H](Cc2c[nH]c3ccccc23)C(=O)N[C@@H](CCC(=O)O)C(=O)O)NC(=O)[C@H](Cc2c[nH]c3ccccc23)NC(=O)[C@H](Cc2ccc(O)cc2)NC(=O)[C@H](CC(=O)O)NC(=O)[C@H](Cc2ccccc2)NC(=O)CNC1=O [2l] (H-RWCARRDYRFDMGFDYWCWE-OH; disulfide 3-18)	0.584	0.06	-3.22 ± 0.042	66.0	82 ± 1	71 ± 1	19.6 ± 0.21	-44 ± 2	-22.8 ± 0.21	-30.5 ± 0.17	-30.4813	339.181	–	–	–	–	–	–	–
CC[C@H](C)[C@H](NC(=O)[C@H](Cc1ccc(O)cc1)NC(=O)CNC(=O)[C@H](Cc1ccc(O)cc1)NC(=O)[C@H](CC(N)=O)NC(=O)CNC(=O)[C@H](Cc1ccc(O)cc1)NC(=O)[C@H](C)NC(=O)[C@H](CCCNC(=N)N)NC(=O)[C@H](C)NC(=O)[C@@H](NC(=O)[C@H](Cc1c[nH]c2ccccc12)NC(=O)[C@@H](N)CCCNC(=N)N)C(C)C)C(=O)N[C@@H](CC(=O)O)C(=O)N[C@H](C(=O)N[C@@H](Cc1c[nH]c2ccccc12)C(=O)N[C@@H](Cc1c[nH]cn1)C(=O)N[C@@H](Cc1c[nH]c2ccccc12)C(=O)N[C@@H](CCC(=O)O)C(=O)O)C(C)C [2r] (H-RWVARAYGNYGYIDVWHWE-OH)	–	0.08	-4.81 ± 0.042	67.6	91 ± 1	80 ± 1	29.8 ± 1.3	-44 ± 9	-34.7 ± 1.3	-42.7 ± 0.84	–	–	91% (B)	91	-42.6207	–	–	–	–
CSCC[C@H](NC(=O)[C@H](CC(=O)O)NC(=O)CNC(=O)[C@H](CCCNC(=N)N)NC(=O)[C@H](Cc1ccc(O)cc1)NC(=O)[C@H](CC(=O)O)NC(=O)[C@H](CCCNC(=N)N)NC(=O)[C@H](CCCNC(=N)N)NC(=O)[C@H](C)NC(=O)[C@@H](NC(=O)[C@H](Cc1c[nH]c2ccccc12)NC(=O)[C@@H](N)CCCNC(=N)N)C(C)C)C(=O)NCC(=O)N[C@@H](Cc1ccccc1)C(=O)N[C@@H](CC(=O)O)C(=O)N[C@@H](Cc1ccc(O)cc1)C(=O)N[C@@H](Cc1c[nH]c2ccccc12)C(=O)N[C@@H](Cc1c[nH]cn1)C(=O)N[C@@H](Cc1c[nH]c2ccccc12)C(=O)N[C@@H](CCC(=O)O)C(=O)O [2d] (H-RWVARRDYRGDMGFDYWHWE-OH)	–	0.06	-6.65 ± 0.042	50.9	97 ± 1	80 ± 1	76.1 ± 0.84	0	-82.8 ± 0.84	-82.8 ± 0.29	–	–	97% (B)	–	–	97	51	-82.8796	324.048

Reference: paper PMC11562385 (RSC Chemical Biology, 2024)
